Experimental data taken from US20180099937A1, “NOVEL ARYL-CYANOGUANIDINE COMPOUNDS” (Bayer Pharma Aktiengesellschaft, priority 2015, published 2018).

Tests used:
SMYD2 [1] = target: T1, SMYD2 (Homo sapiens, UniProt Q9NRG4); assay: In Cell Western (ICW) cell-based assay for detection of SMYD2 methylation activity; set-up: expressed in transfected cells; host or cells: KYSE-150 (human esophageal carcinoma, DSMZ ACC 375); conditions: SMYD2 overexpressing KYSE-150 cells, 72 h treatment, p53K370me1 signal normalized to DRAQ5; read-out: IC50 [mol/l] (ICW assay)
From the text: 1.2 Cell-Based Assay for Detection of SMYD2 methylation Activity
For the detection of SMYD2 cellular methylation activity an In Cell Western (ICW) assay was established. This assay allows rapid processing of multiple samples for SMYD2 methylation derived immunofluorescence signals, with normalization to cell number via the use of the nucleic acid dye DRAQS. KYSE-150 cells (human esophageal carcinoma cell line; DSMZ-German Collection of Microorganisms and Cell Cultures; No: ACC 375) have been stably transfected with a construct expressing wild-type SMYD2 (NCBI Reference Sequence: NP_064582.2). To detect SMYD2-mediated methylation signals in cells, a customized antibody directed against mono-methylated lysine 370 on protein p53 (p53K370me1) was used. The polyclonal antibody was generated (Eurogentec) against a p53 peptide containing the mono-methylated K370 epitope as described elsewhere (Huang et al., Nature, 2006, 444(7119):629-32).
For conducting the ICW assay 5000 SMYD2 overexpressing KYSE-150 cells/well were seeded in 96-well plates (SIGMA) and cultivated for 24 h. As a control for maximal inhibition of ectopic methylation activity, non-transfected KYSE-150 cells were used. Cells were grown in 49% RPMI 1640 with 49% Ham's F12 media supplemented with 2% heat inactivated fetal calf serum (FCS). For determination of SMYD2 inhibitory activity, cells were treated for 72 h in the presence of compounds or with DMSO. Cells were treated with compounds to be tested at a final concentration range varying from 3.9×10^−8 to 5×10^−6 M. Media was removed and 3.7% (w/v) formaldehyde in PBS was added for 20 min. After two washes with phosphate buffered saline (PBS), 0.25% (v/v) Triton X100 in PBS was added for 15 minutes of permeabilization. After one washing step with PBS, cells were blocked for 1 h with 5% (w/v) non-fat dry milk in PBS. Fixed cells were exposed to primary […] antibody in 5% non-fat dry milk in PBS for 24 h. One row of cells on each plate was not exposed to p53K370me1 antibody and was reserved for background control measurements. The wells were washed three times with PBS, then secondary IR800 conjugated antibody (LI-COR) and DNA-intercalating dye, 5 μM DRAQ5 (LI-COR) were added for 3 h. After 5 washes with PBS, the fluorescence in each well was measured on an Odyssey (LI-COR) scanner at 800 nm (p53K370me1 signal; 764 nm excitation) and 700 nm (DRAQS signal; 683 nm excitation). Fluorescence intensity was quantified and normalized to background and DRAQ5 signals. IC50 values were calculated by fitting the normalized inhibition data to a 4-parameter logistic equation (Minimum, Maximum, IC50, Hill; Y=Max+(Min−Max)/(1+(X/IC50)Hill)) for each tested compound. For IC50 determination C0 (=no inhibition) was defined as the signal measured for DMSO treated controls. Ci (maximal inhibition) was defined as the signal measured for non SMYD2 overexpressing KYSE150 cells.

SMYD2 [2] = target: T1, SMYD2; assay: Scintillation Proximity Assay (SPA) for detection of SMYD2 enzymatic inhibition; format: biochemical; set-up: The SMYD2 full length enzyme was produced in-house by expression (with an N-terminal 6× His tag) in E. coli; 6xHis (N); made in house; host or cells: E. coli; conditions: SMYD2 full length enzyme, p53 Peptide substrate 1.0 μM, 3H-SAM 60 nM; read-out: IC50 [mol/l] (SPA Assay)
In short: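 Full-length N-His SMYD2 from E. coli (typically 3 nM) was preincubated with compounds (0.1 nM–20 μM) for 15 min, then reacted 30 min at 22° C with 60 nM 3H-SAM and 1.0 μM biotinylated p53 peptide in Tris pH 9.0. Streptavidin SPA beads read methylation, and IC50 came from a 4-parameter fit.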

T1 sequence (Q9NRG4 whole entry): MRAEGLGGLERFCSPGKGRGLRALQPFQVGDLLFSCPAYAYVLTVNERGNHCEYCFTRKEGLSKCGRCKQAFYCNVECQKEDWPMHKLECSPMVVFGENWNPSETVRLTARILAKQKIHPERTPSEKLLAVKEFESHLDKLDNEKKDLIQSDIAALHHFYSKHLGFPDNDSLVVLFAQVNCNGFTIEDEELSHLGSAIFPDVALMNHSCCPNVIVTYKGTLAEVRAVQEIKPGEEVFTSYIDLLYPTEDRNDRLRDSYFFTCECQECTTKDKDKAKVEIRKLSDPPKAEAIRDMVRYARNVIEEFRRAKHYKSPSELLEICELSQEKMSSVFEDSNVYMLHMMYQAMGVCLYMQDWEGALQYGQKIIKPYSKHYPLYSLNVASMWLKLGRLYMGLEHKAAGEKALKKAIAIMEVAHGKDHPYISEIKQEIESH

IC50 (SMYD2 [1]) [nM]	IC50 (SMYD2 [2]) [nM]	SMILES
20.3	15.6	CCN(C(=O)[C@H]1CCCN1)C1CN(/C(=N\C#N)Nc2cccc(OC(F)F)c2F)N=C1c1ccc(Cl)c(Cl)c1 (single isomer, unassigned) [Example 13.1, N-[1-{N′-Cyano-N-[3-(difluoromethoxy)-2-fluorophenyl]carbamimidoyl}-3-(3,4-dichlorophenyl)-4,5-dihydro-1H-pyrazol-4-yl]-N-ethyl-D-prolinamide]
3.87	8.03	CCN(C(=O)[C@H]1CCN1)C1CN(/C(=N\C#N)Nc2cccc(OC(F)F)c2)N=C1c1ccc(Cl)c(C)c1 (mixture of isomers) [Example 36, (2R)-N-[3-(4-Chloro-3-methylphenyl)-1-{N′-cyano-N-[3-(difluoromethoxy)phenyl]-carbamimidoyl}-4,5-dihydro-1H-pyrazol-4-yl]-N-ethylazetidine-2-carboxamide]
161	24.7	CCN(C(=O)[C@H]1CCCN1)C1CN(/C(=N\C#N)Nc2cccc(OC(F)F)c2)N=C1c1ccc(Cl)c(Cl)c1 (mixture of isomers) [Example 1, N-[1-{N′-Cyano-N-[3-(difluoromethoxy)phenyl]carbamimidoyl}-3-(3,4-dichlorophenyl)-4,5-dihydro-1H-pyrazol-4-yl]-N-ethyl-D-prolinamide]
571	121	N#C/N=C(/Nc1cccc(OC(F)F)c1)N1CC(NC(=O)[C@@H]2CCC[C@@H]2N)C(c2ccc(Cl)c(Cl)c2)=N1 (relative stereo) [Example 41, Rel-(1R,2S)-2-amino-N-[1-{N′-cyano-N-[3-(difluoromethoxy)phenyl]carbamimidoyl}-3-(3,4-dichlorophenyl)-4,5-dihydro-1H-pyrazol-4-yl]cyclopentanecarboxamide]
313	16.8	CN(C(=O)[C@H]1C[C@@H](O)CN1)C1CN(/C(=N\C#N)Nc2cccc(OC(F)F)c2)N=C1c1ccc(Cl)c(Cl)c1 (mixture of isomers) [Example 12, (4R)-N-[1-{N′-Cyano-N-[3-(difluoromethoxy)phenyl]carbamimidayl}-3-(3,4-dichlorophenyl)-4,5-dihydro-1H-pyrazol-1-yl]-4-hydroxy-N-methyl-D-prolinamide]
77	39.5	CCN(C(=O)[C@H]1CCCN1)C1CN(/C(=N\C#N)Nc2cc(OC)cc(C(F)(F)F)c2)N=C1c1ccc(Cl)c(Cl)c1 (mixture of isomers) [Example 28, N-[1-{N′-Cyano-N-[3-methoxy-5-(trifluoromethyl)phenyl]carbamimidoyl}-3-(3,4-dichlorophenyl)-4,5-dihydro-1H-pyrazol-4-yl]-N-ethyl-D-prolinamide]
228	878	CCN(C(=O)[C@H]1CCCN1)C1CN(/C(=N\C#N)Nc2cccc(OC(F)(F)F)c2F)N=C1c1ccc(Cl)c(Cl)c1 (single isomer, unassigned) [Example 21.2, N-[1-{N′-Cyano-N-[2-fluoro-3-(trifluoromethoxy)phenyl]carbamimidoyl}-3-(3,4-dichlorophenyl)-4,5-dihydro-1H-pyrazol-4-yl]-N-ethyl-D-prolinamide]
206	44.3	CCCN(C(=O)[C@H]1CCCN1)C1CN(/C(=N\C#N)Nc2cccc(OC(F)F)c2)N=C1c1ccc(Cl)c(C)c1 (mixture of isomers) [Example 40, N-[3-(4-Chloro-3-methylphenyl)-1-{N′-cyano-N-[3-(difluoromethoxy)phenyl]carbamimidoyl}-4,5-dihydro-1H-pyrazol-4-yl]-N-propyl-D-prolinamide]
14.8	10.5	CCN(C(=O)[C@H]1CCN1)C1CN(/C(=N\C#N)Nc2cccc(OC(F)F)c2)N=C1c1ccc(Cl)c(C)c1 (single isomer, unassigned) [Example 36.1]
16.8	28	CCN(C(=O)[C@H]1CCCN1)C1CN(/C(=N\C#N)Nc2cccc(OC(F)(F)F)c2F)N=C1c1ccc(Cl)c(Cl)c1 (single isomer, unassigned) [Example 21.1, N-[1-{N′-Cyano-N-[2-fluoro-3-(trifluoromethoxy)phenyl]carbamimidoyl}-3-(3,4-dichlorophenyl)-4,5-dihydro-1H-pyrazol-4-yl]-N-ethyl-D-prolinamide]
2.55	30	CCN(C(=O)[C@H]1C[C@@H](F)CN1)C1CN(/C(=N\C#N)Nc2cccc(OC(F)F)c2)N=C1c1ccc(Cl)c(C)c1 (single isomer, unassigned) [Example 38.1]
